Where two headings read alike, the source gives them in different places.
How the values were obtained:
[1] = system: Selenastrum capricornutum; assay: 96-hour IC50 determination; assay type: cell-based; conditions: 96-hour 50% inhibition concentration, read-out: IC50, Selanastrum capricornutum
Description: (§1) The green alga Selenastrum capricornutum (obtained from the United States Environmental Protection Agency, Corvallis, Oreg.) was used as the representative green algal species in the bioassay since it is a common species found in southeastern United States catfish ponds. […] In addition, a 96-hour 50% inhibition concentration (IC50) was determined for DNA1-19-1 and DNA2-59-1 by using the method described by Schrader et al. (1998b). Stock solutions of DNA1-19-1 and DNA2-59-1 were prepared so that final concentrations screened for 96-hour IC50 determinations were as follows: 1) 0, 0.01, 0.033, 0.1, 0.333, 1.0, 3.3, and 10.0 μM DNA1-19-1 for both O. perornata and S. capricornutum; 2) 0, 0.003, 0.01, 0.033, 0.1, 0.333, 1.0, and 3.333 μM DNA2-59-1 for O. perornata; and 3) 0, 0.1, 0.333, 1.0, 3.333, 10.0, 33.333, and 100.0 μM DNA2-59-1 for S. capricornutum. Estimation of the IC50 was determined by plotting 96-hour absorbance readings against logarithmic dilution values of the anthraquinone analogs.
(§2) The green alga Selenastrum capricornutum (obtained from the United States Environmental Protection Agency, Corvallis, Oreg.) was used as the representative green algal species in the bioassay since it is a common species found in southeastern United States catfish ponds. […] Stock solutions of DNA1-19-1 and DNA2-59-1 were prepared so that final concentrations screened for 96-hour IC50 determinations were as follows: 1) 0, 0.01, 0.033, 0.1, 0.333, 1.0, 3.3, and 10.0 μM DNA1-19-1 for both O. perornata and S. capricornutum; 2) 0, 0.003, 0.01, 0.033, 0.1, 0.333, 1.0, and 3.333 μM DNA2-59-1 for O. perornata; and 3) 0, 0.1, 0.333, 1.0, 3.333, 10.0, 33.333, and 100.0 μM DNA2-59-1 for S. capricornutum. Estimation of the IC50 was determined by plotting 96-hour absorbance readings against logarithmic dilution values of the anthraquinone analogs.

Oscillatoria perornata [2] = assay: 96-hour IC50 determination; assay type: cell-based; conditions: for IC50: 96-hour 50% inhibition concentration; for selective toxicity towards O. perornata compared to S. capricornutum (result in words): based on laboratory screening and IC50 results
Description: as §1, §2

[3] = system: Selenastrum capricornutum; assay: Rapid bioassay screening for selective algicides (LOEC, LCIC); assay type: cell-based; conditions: rapid screening
Description: (§3) These were screened in the laboratory by the method of Schrader et al. (K. K. Schrader, M. Q. de Regt, C. S. Tucker and S. O. Duke, A rapid bioassay for selective algicides. Weed Technol. (1997), vol. 11, pp. 767-774) for algicidal activity.
(§4) The anthraquinone derivatives were screened for selective toxicity towards Oscillatoria perornata, previously isolated from a Mississippi catfish pond, using the method of Schrader et al. (1997). The green alga Selenastrum capricornutum (obtained from the United States Environmental Protection Agency, Corvallis, Oreg.) was used as the representative green algal species in the bioassay since it is a common species found in southeastern United States catfish ponds. Absorbance readings were graphed, and graphs were used to determine the LOEC (lowest-observed-effect concentration) and the LCIC (lowest-complete-inhibition concentration) for each anthraquinone analog. In addition, a 96-hour 50% inhibition concentration (IC50) was determined for DNA1-19-1 and DNA2-59-1 by using the method described by Schrader et al. (1998b). Stock solutions of DNA1-19-1 and DNA2-59-1 were prepared so that final concentrations screened for 96-hour IC50 determinations were as follows: 1) 0, 0.01, 0.033, 0.1, 0.333, 1.0, 3.3, and 10.0 μM DNA1-19-1 for both O. perornata and S. capricornutum; 2) 0, 0.003, 0.01, 0.033, 0.1, 0.333, 1.0, and 3.333 μM DNA2-59-1 for O. perornata; and 3) 0, 0.1, 0.333, 1.0, 3.333, 10.0, 33.333, and 100.0 μM DNA2-59-1 for S. capricornutum. Estimation of the IC50 was determined by plotting 96-hour absorbance readings against logarithmic dilution values of the anthraquinone analogs. The screening results of the anthraquinone derivatives and commercially available analogs of anthraquinone are presented in Tables 1 and 2, respectively. The results in Table 1 reveal that DNA1-19-1 and DNA2-59-1 are the most promising analogs since these two compounds had the lowest LOEC and LCIC values for O. perornata (10 nM and 100 nM, respectively). Based upon IC50 results in Table 3, DNA2-59-1 appears to be more toxic and selective towards O. perornata than DNA1-19-1.
(§5) The anthraquinone derivatives were screened for selective toxicity towards Oscillatoria perornata, previously isolated from a Mississippi catfish pond, using the method of Schrader et al. (A rapid bioassay for selective algicides. Weed Technol. (1997), vol. 11, pp. 767-774). The green alga Selenastrum capricornutum (obtained from the United States Environmental Protection Agency, Corvallis, Oreg.) was used as the representative green algal species in the bioassay since it is a common species found in southeastern United States catfish ponds. Absorbance readings were graphed, and graphs were used to determine the LOEC (lowest-observed-effect concentration) and the LCIC (lowest-complete-inhibition concentration) for each anthraquinone analog. In addition, a 96-hour 50% inhibition concentration (IC50) was determined for DNA1-19-1 and DNA2-59-1 by using the method described by Schrader et al. (K. K. Schradar, M. Q. de Regt, P. D. Tidwell, C. S. Tucker and S. O. Duke, Selective growth inhibition of the musty-odor producing cyanobacterium Oscillatoria cf. chalybea by natural compounds. Bull. Environ. Contam. Toxicol. (1998a), vol.60, pp. 651-658). Stock solutions of DNA1-19-1 and DNA2-59-1 were prepared so that final concentrations screened for 96-hour IC50 determinations were as follows: 1) 0, 0.01, 0.033, 0.1, 0.333, 1.0, 3.3, and 10.0 μM DNA1-19-1 for both O. perornata and S. capricornutum; 2) 0, 0.003, 0.01, 0.033, 0.1, 0.333, 1.0, and 3.333 μM DNA2-59-1 for O. perornata; and 3) 0, 0.1, 0.333, 1.0, 3.333, 10.0, 33.333, and 100.0 μM DNA2-59-1 for S. capricornutum. Estimation of the IC50 was determined by plotting 96-hour absorbance readings against logarithmic dilution values of the anthraquinone analogs. […]

Oscillatoria perornata [4] = assay: as above; assay type: cell-based; conditions: rapid screening; for MIC: read-out: LCIC (lowest-complete-inhibition concentration), Oscillatoria perornata; for minimal effective concentration: read-out: LOEC (lowest-observed-effect concentration), Oscillatoria perornata
Description: as §3, §4, §5

Solubility in water = assay type: physicochemical

| SMILES | IC50 [1] [nM] | IC50 (Oscillatoria perornata [2]) [nM] | selective toxicity towards O. perornata compared to S. capricornutum (result in words) (Oscillatoria perornata [2]) | LCIC (lowest-complete-inhibition concentration), Selenastrum capricornutum [3] | LOEC (lowest-observed-effect concentration), Selenastrum capricornutum [3] | MIC (Oscillatoria perornata [4]) [µM] | minimal effective concentration (Oscillatoria perornata [4]) [nM] | solubility in water (Solubility in water) | IC50 ([1]; Selenastrum capricornutum) [nM] | IC50 (Oscillatoria perornata [2]; Planktothrix perornata) [nM] | MIC ([3]; Selenastrum capricornutum, read-out: LCIC (lowest-complete-inhibition concentration), Selenastrum capricornutum) [µM] | minimal effective concentration ([3]; Selenastrum capricornutum, read-out: LOEC (lowest-observed-effect concentration), Selenastrum capricornutum) [µM] | MIC (Oscillatoria perornata [4]; Planktothrix perornata) [µM] | minimal effective concentration (Oscillatoria perornata [4]; Planktothrix perornata) [nM] |
| --- | --- | --- | --- | --- | --- | --- | --- | --- | --- | --- | --- | --- | --- | --- |
| CCN(CC)CCCC(C)NCc1ccc2c(c1)C(=O)c1ccccc1C2=O.O=P(O)(O)O.O=P(O)(O)O (stereo not shown) [DNA1-19-1, 2-[methylamino-N-(1′-methyl-4′-N,N-diethylaminobutyl)]-9,10-anthraquinone diphosphate] | 5010 | 63 | very selectively toxic | 10,000 nM | 10,000 nM | 0.1 | 10 | soluble in water |  |  |  |  |  |  |
| CC(C)NCc1ccc2c(c1)C(=O)c1ccccc1C2=O [DNA2-59-1, 2-[methylamino-N-(1′-methylethyl)]-9,10-anthraquinone monophosphate] |  |  | very selectively toxic |  |  |  |  | soluble in water | 5620 | 6.3 | 100 | 10 | 0.1 | 10 |

From US6949250B2, “Selective algaecides for control of cyanochloronta” (The United States of America as represented by the …, priority 2002, dated 2005)
